# Measurements taken from US9637487B2, “Purinone compounds as kinase inhibitors” (Pharmacyclics LLC, priority 2013, dated 2017).
# Biological target: Btk (Homo sapiens (Human), UniProt Q06187)
# Assay: Btk in vitro inhibitory activity (one of Method A TR-FRET, Method B mobility shift, Method C radiometric filter binding)
# Format: biochemical
# Details: determined using one of the methods outlined in Example 36a, 36b and 36c
# Method: Btk kinase activity is determined using a time-resolved fluorescence resonance energy transfer (TR-FRET) methodology. Measurements are performed in a reaction volume of 50 μL using 96-well assay plates. […] The reaction is quenched by the addition of 1.2 equivalents of EDTA (relative to divalent cation) in 25 μL of 1× Lance buffer (Perkin-Elmer). […] The TR-FRET signal is measured on a multimode plate reader with an excitation wavelength (λEx) of 330 nm and detection wavelengths (λEm) of 615 and 665 nm. Activity is determined by the ratio of the fluorescence at 665 nm to that at 615 nm. For each compound, enzyme activity is measured at various concentrations of compound. Negative control reactions are performed in the absence of inhibitor in replicates of six, and two no-enzyme controls are used to determine baseline fluorescence levels Inhibition constants, Ki(app), ware obtained using the program BatchKi (Kuzmic et al. (2000), Anal. Biochem. 286:45-50). IC50s are obtained according to the equation: IC50={Ki(app)/(1+[ATP]/Km^ATP)}+[E]total/2;
# Kinase activity is measured in vitro using electrophoretic mobility shift assay. The kinase reactions are assembled in a total volume of 25 μL in 384 well plates. […] The reaction is incubated for one hour and is quenched by the addition of 45 μL of termination buffer (100 mM HEPES, pH7.5, 0.01% Triton X-100, 30 mM EDTA). The terminated reactions are analyzed using 12 channel LabChip® 3000 microfluidic detection instrument (Caliper Life Sciences). […] Change in the relative fluorescence intensity of the substrate and product peaks is the parameter measured, reflecting enzyme activity. In the presence of an inhibitor, the ratio between product and substrate is altered: the signal of the product decreases, while the signal of the substrate increases.
# Activity in each sample is determined as the product to sum ratio (PSR):P/(S+P), where P is the peak height of the product peptide and S is the peak height of the substrate peptide. For each compound, enzyme activity is measured at various concentrations (12 concentrations of compound spaced by 3× dilution intervals). Negative control samples (0%-inhibition in the absence of inhibitor) and positive control samples (100%-inhibition, in the presence of 20 mM EDTA) are assembled in replicates of four and are used to calculate %-inhibition values for each inhibitor at each concentration. Percent inhibition (Pinh) is determined using following equation: Pinh=(PSR0%−PSRinh)/(PSR0%−PSR100%)*100, where PSRinh is the product sum ratio in the presence of inhibitor, PSR0% is the average product sum ration in the absence of inhibitor and PSR100% is the average product sum ratio in 100%-inhibition control samples;
# The IC50 values of inhibitors are determined by 4 parameter sigmoidal dose-response model fitting of the inhibition curves (Pinh versus inhibitor concentration) using XLfit 4 software.
# IC50 values and curve fits were obtained using Prism (GraphPad Software).
# The degree of Btk inhibition was determined using one of the methods outlined in Example 36a, 36b and 36c.
# Btk, sequence (Q06187 whole entry): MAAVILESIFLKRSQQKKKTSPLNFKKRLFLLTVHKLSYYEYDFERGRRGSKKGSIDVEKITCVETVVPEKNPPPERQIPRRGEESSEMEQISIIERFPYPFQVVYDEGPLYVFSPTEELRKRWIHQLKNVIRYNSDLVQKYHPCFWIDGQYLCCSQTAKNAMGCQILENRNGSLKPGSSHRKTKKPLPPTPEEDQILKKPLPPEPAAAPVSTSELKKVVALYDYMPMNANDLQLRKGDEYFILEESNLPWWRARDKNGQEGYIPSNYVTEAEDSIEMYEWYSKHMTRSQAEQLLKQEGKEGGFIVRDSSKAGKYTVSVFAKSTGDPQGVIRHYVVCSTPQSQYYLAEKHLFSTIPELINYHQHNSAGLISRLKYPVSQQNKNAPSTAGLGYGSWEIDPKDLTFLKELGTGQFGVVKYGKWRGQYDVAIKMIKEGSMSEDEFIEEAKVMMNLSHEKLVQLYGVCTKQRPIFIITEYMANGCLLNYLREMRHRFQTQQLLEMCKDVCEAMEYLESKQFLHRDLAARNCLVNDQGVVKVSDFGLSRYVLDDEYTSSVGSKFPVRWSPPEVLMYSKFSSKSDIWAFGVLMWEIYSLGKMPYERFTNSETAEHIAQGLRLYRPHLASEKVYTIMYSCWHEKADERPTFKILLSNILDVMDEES
row,Structure (SMILES),IC50 [nM]
1,"CN(C)C/C=C/C(=O)N(C)c1cccc(-n2c(=O)n(-c3ccc(C(=O)Nc4ccccn4)cc3)c3c(N)ncnc32)c1 [Compound 6, (E)-4-(6-amino-9-(3-(4-(dimethylamino)-N-methylbut-2-enamido)phenyl)-8-oxo-8,9-dihydro-7H-purin-7-yl)-N-(pyridin-2-yl)benzamide]",< 100
2,"Cc1ccnc(NC(=O)c2ccc(-n3c(=O)n(-c4cccc(N(C)C(=O)/C=C/CN(C)C)c4)c4ncnc(N)c43)cc2)c1 [Compound 7, (E)-4-(6-amino-9-(3-(4-(dimethylamino)-N-methylbut-2-enamido)phenyl)-8-oxo-8,9-dihydro-7H-purin-7-yl)-N-(4-methylpyridin-2-yl)benzamide]",< 100
3,"CCc1ccnc(NC(=O)c2ccc(-n3c(=O)n(-c4cccc(N(C)C(=O)/C=C/CN(C)C)c4)c4ncnc(N)c43)cc2)c1 [Compound 8, (E)-4-(6-amino-9-(3-(4-(dimethylamino)-N-methylbut-2-enamido)phenyl)-8-oxo-8,9-dihydro-7H-purin-7-yl)-N-(4-ethylpyridin-2-yl)benzamide]",< 100
4,"CCCc1ccnc(NC(=O)c2ccc(-n3c(=O)n(-c4cccc(N(C)C(=O)/C=C/CN(C)C)c4)c4ncnc(N)c43)cc2)c1 [Compound 9, (E)-4-(6-amino-9-(3-(4-(dimethylamino)-N-methylbut-2-enamido)phenyl)-8-oxo-8,9-dihydro-7H-purin-7-yl)-N-(4-propylpyridin-2-yl)benzamide]",< 100
5,"CN(C)C/C=C/C(=O)N(C)c1cccc(-n2c(=O)n(-c3ccc(C(=O)Nc4cc(C(F)(F)F)ccn4)cc3)c3c(N)ncnc32)c1 [Compound 10, (E)-4-(6-amino-9-(3-(4-(dimethylamino)-N-methylbut-2-enamido)phenyl)-8-oxo-8,9-dihydro-7H-purin-7-yl)-N-(4-(trifluoromethyl)pyridin-2-yl)benzamide]",< 100
6,"CN(C)C/C=C/C(=O)N(C)c1cccc(-n2c(=O)n(-c3ccc(C(=O)Nc4cccc(C(F)(F)F)c4)cc3)c3c(N)ncnc32)c1 [Compound 11, (E)-4-(6-amino-9-(3-(4-(dimethylamino)-N-methylbut-2-enamido)phenyl)-8-oxo-8,9-dihydro-7H-purin-7-yl)-N-(3-(trifluoromethyl)phenyl)benzamide]",< 100
7,"CN(C)C/C=C/C(=O)N(C)c1cccc(-n2c(=O)n(-c3ccc(C(=O)Nc4cccc(-c5ncccn5)c4)cc3)c3c(N)ncnc32)c1 [Compound 12, (E)-4-(6-amino-9-(3-(4-(dimethylamino)-N-methylbut-2-enamido)phenyl)-8-oxo-8,9-dihydro-7H-purin-7-yl)-N-(3-(pyrimidin-2-yl)phenyl)benzamide]",< 100
8,"CN(C)C/C=C/C(=O)N(C)c1cccc(-n2c(=O)n(-c3ccc(C(=O)Nc4ncccc4F)cc3)c3c(N)ncnc32)c1 [Compound 13, (E)-4-(6-amino-9-(3-(4-(dimethylamino)-N-methylbut-2-enamido)phenyl)-8-oxo-8,9-dihydro-7H-purin-7-yl)-N-(3-fluoropyridin-2-yl)benzamide]",100 to 1000
9,"CN(C)C/C=C/C(=O)N(C)c1cccc(-n2c(=O)n(-c3ccc(C(=O)Nc4ccc(F)cn4)cc3)c3c(N)ncnc32)c1 [Compound 14, (E)-4-(6-amino-9-(3-(4-(dimethylamino)-N-methylbut-2-enamido)phenyl)-8-oxo-8,9-dihydro-7H-purin-7-yl)-N-(5-fluoropyridin-2-yl)benzamide]",< 100
10,"CN(C)C/C=C/C(=O)N(C)c1cccc(-n2c(=O)n(-c3ccc(C(=O)Nc4cncc(F)c4)cc3)c3c(N)ncnc32)c1 [Compound 15, (E)-4-(6-amino-9-(3-(4-(dimethylamino)-N-methylbut-2-enamido)phenyl)-8-oxo-8,9-dihydro-7H-purin-7-yl)-N-(5-fluoropyridin-3-yl)benzamide]",100 to 1000
11,"Cc1cc(NC(=O)c2ccc(-n3c(=O)n(-c4cccc(N(C)C(=O)/C=C/CN(C)C)c4)c4ncnc(N)c43)cc2)ncc1F [Compound 16, (E)-4-(6-amino-9-(3-(4-(dimethylamino)-N-methylbut-2-enamido)phenyl)-8-oxo-8,9-dihydro-7H-purin-7-yl)-N-(5-fluoro-4-methylpyridin-2-yl)benzamide]",< 100
12,"CN(C)C/C=C/C(=O)N(C)c1cccc(-n2c(=O)n(-c3ccc(C(=O)Nc4ccc(Cl)cn4)cc3)c3c(N)ncnc32)c1 [Compound 17, (E)-4-(6-amino-9-(3-(4-(dimethylamino)-N-methylbut-2-enamido)phenyl)-8-oxo-8,9-dihydro-7H-purin-7-yl)-N-(5-chloropyridin-2-yl)benzamide]",< 100
13,"CN(C)C/C=C/C(=O)N(C)c1cccc(-n2c(=O)n(-c3ccc(C(=O)Nc4nccs4)cc3)c3c(N)ncnc32)c1 [Compound 18, (E)-4-(6-amino-9-(3-(4-(dimethylamino)-N-methylbut-2-enamido)phenyl)-8-oxo-8,9-dihydro-7H-purin-7-yl)-N-(thiazol-2-yl)benzamide]",< 100
14,"Cc1cnc(NC(=O)c2ccc(-n3c(=O)n(-c4cccc(N(C)C(=O)/C=C/CN(C)C)c4)c4ncnc(N)c43)cc2)s1 [Compound 19, (E)-4-(6-amino-9-(3-(4-(dimethylamino)-N-methylbut-2-enamido)phenyl)-8-oxo-8,9-dihydro-7H-purin-7-yl)-N-(5-methylthiazol-2-yl)benzamide]",< 100
15,"Cc1csc(NC(=O)c2ccc(-n3c(=O)n(-c4cccc(N(C)C(=O)/C=C/CN(C)C)c4)c4ncnc(N)c43)cc2)n1 [Compound 20, (E)-4-(6-amino-9-(3-(4-(dimethylamino)-N-methylbut-2-enamido)phenyl)-8-oxo-8,9-dihydro-7H-purin-7-yl)-N-(4-methylthiazol-2-yl)benzamide]",< 100
16,"Cc1nc(NC(=O)c2ccc(-n3c(=O)n(-c4cccc(N(C)C(=O)/C=C/CN(C)C)c4)c4ncnc(N)c43)cc2)sc1C [Compound 21, (E)-4-(6-amino-9-(3-(4-(dimethylamino)-N-methylbut-2-enamido)phenyl)-8-oxo-8,9-dihydro-7H-purin-7-yl)-N-(4,5-dimethylthiazol-2-yl)benzamide]",< 100
17,"CN(C)C/C=C/C(=O)N(C)c1cccc(-n2c(=O)n(-c3ccc(C(=O)Nc4nc5c(s4)CCCC5)cc3)c3c(N)ncnc32)c1 [Compound 22, (E)-4-(6-amino-9-(3-(4-(dimethylamino)-N-methylbut-2-enamido)phenyl)-8-oxo-8,9-dihydro-7H-purin-7-yl)-N-(4,5,6,7-tetrahydrobenzo[d]thiazol-2-yl)benzamide]",< 100
18,"CN(C)C/C=C/C(=O)N(C)c1cccc(-n2c(=O)n(-c3ccc(C(=O)Nc4nc5ccccc5s4)cc3)c3c(N)ncnc32)c1 [Compound 23, (E)-4-(6-amino-9-(3-(4-(dimethylamino)-N-methylbut-2-enamido)phenyl)-8-oxo-8,9-dihydro-7H-purin-7-yl)-N-(benzo[d]thiazol-2-yl)benzamide]",< 100
19,"Cc1nnc(NC(=O)c2ccc(-n3c(=O)n(-c4cccc(N(C)C(=O)/C=C/CN(C)C)c4)c4ncnc(N)c43)cc2)s1 [Compound 24, (E)-4-(6-amino-9-(3-(4-(dimethylamino)-N-methylbut-2-enamido)phenyl)-8-oxo-8,9-dihydro-7H-purin-7-yl)-N-(5-methyl-1,3,4-thiadiazol-2-yl)benzamide]",1000 to 10000
